Literature values as cited in patent US5939423A, “Treatment of hepatitis B infection with thymosin alpha 1 and famciclovir” (priority 1997, dated 1999).
Ends that are not written are not given here.

Assays:
[1] = tested on: HBV
[2] = tested on: zoster
[3] = tested on: duck hepatitis B virus; details: for maintenance of suppression of HBV DNA and DNA polymerase during treatment: 21 days of treatment; for maintenance of suppression of HBV DNA and DNA polymerase during treatment / DNA polymerase level / HBV DNA level: oral twice a day, penciclovir 20 and 100 mg/kg, famciclovir 5 and 25 mg/kg; for inhibition of duck hepatitis B viral replication: Peking duck; for HBV DNA and DNA polymerase levels after the post-dosing suppression: later than two days after dosing had stopped; for DNA polymerase level / HBV DNA level: within two days of start
[4] = tested on: HBV; remark: listed apart in the source
[5] = tested on: herpes simplex
[6] = tested on: HBV; details: 10 day course, 250 mg or 500 mg tid
[7] = tested on: HBV; details: named patients
[8] = single and repeat doses up to 1000 mg three times daily for six days
[9] = more than 3000 patients
[10] = tested on: HBV; details: preliminary data; up to 500 mg three times a day for 16 weeks
[11] = tested on: HBV; details: in vivo
[12] = not given; remark: listed apart in the source
[13] = tested on: HBV; details: 1.45 to 1.75 mg (adults) per twice-weekly injection
[14] = in vivo
[15] = tested on: HBV; remark: listed apart in the source
[16] = tested on: T4 (helper/inducer)cells; details: by activation of the T4 (helper/inducer) cells
[17] = tested on: normal human lymphocytes
[18] = tested on: T cells
[19] = tested on: HBV infection; details: treatment of HBV infection
[20] = tested on: woodchuck hepatitis virus (WHV)
[21] = tested on: HBV; remark: listed apart in the source
[22] = tested on: anti-HBs; details: previously non-reactive hemodialysis patients
[23] = during the 1 yr study or post study follow up, p<0.11 vs placebo
[24] = n = 49, 1.6 mg s.c. 2×/week, 6 months, p value 0.084 vs placebo
[25] = n = 49, 1.6 mg s.c. 2×/week, 6 months, p value ns
[26] = 12 patients received TF5 or Tα1, p<0.004 vs placebo, Fisher's exact test

Molecule: interferon-alpha
- clear HBeAg ([1]; Asian patients): 15-20%
- sustained clearance of hepatitis B e antigen (HBeAg) ([1]; North America and European patients): 30-40%
- clear HBsAg ([1]; of the Asian patients who clear HBeAg): approximately 10%
- ultimately cleared hepatitis B surface antigen (HBsAg) ([1]; of the North America and European patients with HBeAg clearance): 25-65%

Molecule: Nc1nc2c(ncn2CCC(CO)CO)c(=O)[nH]1 [penciclovir]
- efficacy against zoster virus [2]: proven efficacy
- maintenance of suppression of HBV DNA and DNA polymerase during treatment [3]: maintained this suppression during the 21 days
- inhibition of duck hepatitis B viral replication [3]: clearly inhibit
- suppression of viral replication after dosing had stopped [3]: remained suppressed for at least two days
- HBV DNA and DNA polymerase levels after the post-dosing suppression [3]: returned to pre-treatment levels
- DNA polymerase level [3]: undetectable
- HBV DNA level [3]: undetectable
- reduction in HBV DNA by 6 day ([4]; 1 microgram/ml, by 6 day): 50%
- reduction in HBV DNA by day 9 ([4]; 1 microgram/ml, by day 9): 90%
- concentration dependence of HBV DNA reduction ([4]; 2.2.15 hepatoma cells): concentration dependent
- inhibition of HBV in human cells ([4]; 2.2.15 hepatoma cells): potent inhibitor
- efficacy against herpes simplex virus [5]: proven efficacy
- Cmax (penciclovir) (oral penciclovir alone, 5 mg/kg dose): approximately 0.14 microgram/ml

Molecule: CC(=O)OCC(CCn1cnc2cnc(N)nc21)COC(C)=O [famciclovir, diacetylester of 6-deoxy penciclovir]
- fall in HBV DNA levels ([6]; in 6 of 11 evaluable patients): greater than 90%
- evaluable patients with greater than 90% fall in HBV DNA levels ([6]; of 11 evaluable patients): 6
- efficacy in patients with HBV reinfection following liver transplantation [7]: shown efficacy
- drug-related adverse effects on clinical laboratory values, blood pressure, heart rates or ECG measurements [8]: no evidence of drug-related adverse effects
- maintenance of suppression of HBV DNA and DNA polymerase during treatment [3]: maintained this suppression during the 21 days
- inhibition of duck hepatitis B viral replication [3]: clearly inhibit
- suppression of viral replication after dosing had stopped [3]: remained suppressed for at least two days
- HBV DNA and DNA polymerase levels after the post-dosing suppression [3]: returned to pre-treatment levels
- DNA polymerase level [3]: undetectable
- HBV DNA level [3]: undetectable
- most common adverse experiences [9]: headache, nausea and diarrhea
- reduction in HBV DNA and ALT levels [10]: significant reduction
- safety profile [11]: good safety profile
- suppressing HBV replication [11]: effective in suppressing HBV replication
- conversion to penciclovir ([12]; removal of one ester group): partly in the intestinal wall
- completion of conversion to penciclovir ([12]; removal of remaining ester group, oxidation at the 6-position): completed in the liver
- absorption (oral, volunteers): well absorbed

Molecule: Nc1ccn([C@@H]2CS[C@H](CO)O2)c(=O)n1 [lamivudine]
- safety profile [11]: good safety profile
- suppressing HBV replication [11]: effective in suppressing HBV replication

Molecule: Tα1: 28 amino acid peptide with a molecular weight of 3108, initially isolated from Thymus Fraction 5, sequenced and chemically synthesized (SDAAVDTSSEITTKDLKEKKEVVEEAEN; ends and bridges not checked; UniProt P06454 2-29, looked up)
- safety and effectiveness in clearing HBV DNA from the blood [13]: safe and effective
- local or systemic side effects [14]: no local or systemic side effects have been observed
- sustained loss of HBV DNA with negative HBeAg [15, 23]: 25%
- sustained loss of HBV DNA with negative HBeAg, number of patients [15, 23]: 12
- CR (%) (complete response) [15, 24]: 14%
- CR (complete response), number of patients [15, 24]: 7
- DR (%) (delayed response) [15, 25]: 10%
- DR (delayed response), number of patients [15, 25]: 5
- IR (%) (incomplete response) [15, 25]: 0%
- IR (incomplete response), number of patients [15, 25]: 0
- allogenic and autologous human mixed lymphocyte reactions [16]: enhances
- lymphocyte IL2 receptor expression [17]: increase
- interferon-alpha, interferon-gamma, and IL2 and IL3 production ([17]; normal human lymphocytes): promote
- modulating the maturation of T cells [18]: activity similar to TF5
- immune responsiveness [19]: enhances immune responsiveness
- specific lymphocyte parameters [19]: augments specific lymphocyte parameters to significantly higher levels
- change of WHV DNA replication intermediates from pretreatment levels ([20]; liver biopsy, the other 2 animals, end of treatment): only a small change
- treated animals with undetectable WHV DNA levels ([20]; of 6 animals, 10 μg/Kg s.c. twice weekly, 28 weeks): 4
- depression of WHV DNA levels ([20]; remaining 2 animals, 10 μg/Kg s.c. twice weekly, 28 weeks): 100 fold
- number of patients who cleared serum HBV DNA [21, 26]: Nine
- patients who cleared serum HBV DNA [21, 26]: 75%
- peripheral blood lymphocyte, CD3 and CD4 counts, and in vitro production of interferon-gamma ([21]; associated with response, over initial values): significant improvements
- responders with sustained remission with normal ALT levels and negative serum HBV DNA (using PCR) and HBeAg ([21]; of the responders): About 78%
- side effects ([21]; twice weekly for six months): No side effects were observed
- serum aminotransferase levels ([21]; twice weekly for six months, conclusion of the study (1 year)): improved significantly
- in vivo production of anti-HBs following Heptavax-B vaccination [22]: enhance
